Reference: patent publication US3996222A, “Piperazine derivatives” (CRC Compagnia de Ricerca Chimica, priority 1972, dated 1976)
Counter-ions that a name gives are not always drawn. Like-named read-outs stand apart in the source and are kept apart here.

Test: toxicity per os (LD50)
Type: in vivo
Source text: Furthermore, their toxicities are extremely low in comparison with previously known cytostatic and cancer retardant pharmaceuticals.

Clc1ccc(C(c2ccccc2)N2CC[N+]3(CCOCC3)CC2)cc1.[Br-] (stereo not drawn) [X = Br, N^1-(4'-chlorobenzhydryl) -N^4-spiromorpholinopiperazinium bromide]
LD50: 308.5 mg/kg

Clc1ccc(C(c2ccccc2)N2CC[N+]3(CCOCC3)CC2)cc1 (stereo not drawn) [X = Cl, N^1-(4'-chlorobenzhydryl)-N^4-spiro-morpholino-piperazinium chloride-hydrochloride]
LD50 (in vivo, po, read-out: LD50): 316 mg/kg

Clc1ccc(C(c2ccccc2)N2CC[N+]3(CCOCC3)CC2)cc1 (stereo not drawn) [X = I, N^1-(4'-chlorobenzhydryl)-N^4-spiromorpholinopiperazinium iodide]
LD50: 276.7 mg/kg
